Data from patent US9872875B2, “Component and method for treating viral disease” (Institut Pasteur of Shanghai, Chinese Academy of Sciences, priority 2012, dated 2018).
Read-outs that look alike come from different tables or passages of the source.

Key:
P2X5 receptor = P2X5 receptor (Homo sapiens, UniProt Q93086); conditions: Table 8, antagonists; cited from earlier work
P2X1 receptor = target: T1, P2X1 receptor (Homo sapiens, UniProt P51575); conditions: cited from earlier work
T1 sequence (P51575 1-399): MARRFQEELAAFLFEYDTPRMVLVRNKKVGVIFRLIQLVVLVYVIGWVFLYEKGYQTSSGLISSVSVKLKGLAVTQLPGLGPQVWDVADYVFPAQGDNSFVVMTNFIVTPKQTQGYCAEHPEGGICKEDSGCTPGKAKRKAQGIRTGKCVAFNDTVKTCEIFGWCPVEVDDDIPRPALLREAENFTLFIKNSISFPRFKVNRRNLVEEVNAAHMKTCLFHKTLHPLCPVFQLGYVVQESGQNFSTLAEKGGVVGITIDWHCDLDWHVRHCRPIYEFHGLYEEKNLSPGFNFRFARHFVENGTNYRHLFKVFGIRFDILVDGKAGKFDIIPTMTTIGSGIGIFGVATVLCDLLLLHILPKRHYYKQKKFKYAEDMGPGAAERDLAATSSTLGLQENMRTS

P2X7 receptor = target: T2, P2X7 receptor (Homo sapiens, UniProt Q99572); conditions: Table 8, antagonists; cited from earlier work
T2 sequence (Q99572 1-595): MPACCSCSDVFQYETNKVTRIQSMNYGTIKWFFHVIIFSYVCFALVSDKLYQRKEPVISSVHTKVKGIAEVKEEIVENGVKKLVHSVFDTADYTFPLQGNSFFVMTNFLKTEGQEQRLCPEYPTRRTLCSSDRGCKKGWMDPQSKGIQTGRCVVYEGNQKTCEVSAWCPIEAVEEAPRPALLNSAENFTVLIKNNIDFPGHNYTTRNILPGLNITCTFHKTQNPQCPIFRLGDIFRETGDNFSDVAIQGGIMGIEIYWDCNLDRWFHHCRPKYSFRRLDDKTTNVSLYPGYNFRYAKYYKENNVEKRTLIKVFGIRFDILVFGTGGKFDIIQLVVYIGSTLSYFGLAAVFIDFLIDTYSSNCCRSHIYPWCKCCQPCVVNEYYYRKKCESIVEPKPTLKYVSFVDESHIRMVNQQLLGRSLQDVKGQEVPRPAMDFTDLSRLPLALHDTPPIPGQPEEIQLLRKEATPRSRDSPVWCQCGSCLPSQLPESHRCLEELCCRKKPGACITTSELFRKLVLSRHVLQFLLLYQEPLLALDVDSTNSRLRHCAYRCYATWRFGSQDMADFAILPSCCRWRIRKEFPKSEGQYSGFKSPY

P2X2 receptor = target: T3, P2X2 receptor (Homo sapiens, UniProt Q9UBL9); conditions: cited from earlier work
T3 sequence (Q9UBL9 1-471): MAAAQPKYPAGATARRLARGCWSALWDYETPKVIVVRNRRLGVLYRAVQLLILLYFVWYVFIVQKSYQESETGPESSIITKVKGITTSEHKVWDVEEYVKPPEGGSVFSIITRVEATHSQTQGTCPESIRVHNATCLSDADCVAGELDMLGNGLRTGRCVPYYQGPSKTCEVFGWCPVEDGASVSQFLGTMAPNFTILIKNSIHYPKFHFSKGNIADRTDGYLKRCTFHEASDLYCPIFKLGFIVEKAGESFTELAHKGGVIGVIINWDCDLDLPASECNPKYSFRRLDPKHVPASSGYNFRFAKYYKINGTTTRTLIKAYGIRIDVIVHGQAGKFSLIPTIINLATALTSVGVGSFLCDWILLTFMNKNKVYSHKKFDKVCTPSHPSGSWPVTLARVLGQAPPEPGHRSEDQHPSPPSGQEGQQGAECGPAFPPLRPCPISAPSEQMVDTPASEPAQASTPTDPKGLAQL

[1] = system: EV71 M.A.V. (mouse-adapted strain); test: EV71 M.A.V. PFU in RD cells; format: cell-based, Enterovirus 71; conditions: Enterovirus A, read-out: EC50 to reduce EV71 M.A.V. PFU in RD cells
Experimental: EV71 M.A.V. was used to infect RD cells cultured in 12-well plates at different E02 concentrations. After cultured for 5 to 7 days, stained and plaque-forming units were calculated. Detailed procedures were the same as the corresponding PFU testing method of Example 1.

[2] = system: EV71 clinical isolate (EV71 FY 573); test: EV71 TCID50 (CPE, crystal violet) in RD cells; format: cell-based, Enterovirus 71
Experimental: EV71 (clinical isolate EV71 FY 573) in 10-fold serial dilutions was used to infect RD cells at different E02 concentrations. After 3-4 days of incubation, CPE (cytopathic effect) was observed under optical microscope and stained with crystal violet to calculate 50% tissue culture infective dose. Procedures are detailed as follows:
(1) Cell seeding: 24 h prior to infection, RD cells were seeded in 96-well cell culture plates, 5×10^4 cells per well.
(2) Infection: • a. Virus pre-incubated with drug: virus stock solution was in 10-fold serial dilution with DMEM and dispensed to 96-well plates at 100 μl per well, and 11 μl of E02 dissolved in DMEM at corresponding concentration was added, and incubated at 37° C. for 1 h; • b. Cells pre-incubated with drug: cell culture medium was removed from 96-well plates, each well was added 100 μl DMEM, then added 11 μl of E02 solution at corresponding concentration, and incubated at 37° C. for 1 h; • c. After 1 h incubation, drug was discarded from cell culture plates, 111 μl of virus pre-incubated with drug was transferred to cell culture plates, and incubated at 37° C. for 1 h; • d. […]
(3) After cultured for 3-4 days, CPE was observed under optical microscope, and stained with crystal violet, TCID50 was calculated using Reed-Muench method.

EV71 isolate SEP-4 = test: EV71 SEP-4 replication in Vero cells, quantitative RT-PCR; format: cell-based, Enterovirus 71; conditions: SEP-4, Vero cells, MOI 0.1, 46 h
Experimental: Vero cells were infected with EV71 SEP-4 virus strain (provided by Institut Pasteur of Cambodia, Cambodia strain) at different E02 concentrations, at the MOI of 0.1. After cultured for 46 h, viral RNA in culture supernatant was extracted. Relative EV71 viral load was determined by quantitative RT-PCR. For specific procedures, refer to Example 1.

Sequence of P2X5 receptor (Q93086 whole entry): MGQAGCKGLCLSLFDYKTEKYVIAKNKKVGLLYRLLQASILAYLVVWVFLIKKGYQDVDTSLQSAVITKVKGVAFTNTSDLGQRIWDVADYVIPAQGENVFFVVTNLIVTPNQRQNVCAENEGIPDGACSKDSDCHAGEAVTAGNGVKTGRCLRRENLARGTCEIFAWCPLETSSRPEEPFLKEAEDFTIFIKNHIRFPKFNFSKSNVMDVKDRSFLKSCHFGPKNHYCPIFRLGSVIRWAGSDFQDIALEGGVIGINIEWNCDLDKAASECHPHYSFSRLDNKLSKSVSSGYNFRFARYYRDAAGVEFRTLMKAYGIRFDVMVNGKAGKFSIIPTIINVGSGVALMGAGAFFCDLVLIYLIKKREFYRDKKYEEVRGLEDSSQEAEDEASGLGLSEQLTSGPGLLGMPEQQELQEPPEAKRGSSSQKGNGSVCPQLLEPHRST

Row | Structure (SMILES) | P2X receptors 5 (P2X5 receptor) | P2X receptors 1 (P2X1 receptor; Table 8, antagonists) | P2X receptors 7 (P2X7 receptor) | P2X receptors 2 (P2X2 receptor; Table 8, antagonists) | EC50 [1] [µM] | P2X receptors 1 (P2X1 receptor) | inhibition of EV71 clinical isolate infection of RD cells ([2]; 10 μM of E02) | EC50 ([2]; Enterovirus A, RD, EV71 FY 573, 3-4 days, read-out: EC50 to reduce EV71 TCID50 in RD cells) [µM] | concentration reducing EV71 replication by 10-fold (EV71 isolate SEP-4) [μM] | concentration reducing EV71 replication by 100-fold (EV71 isolate SEP-4) [µM] | P2X receptors 2 (P2X2 receptor)
1 | Cc1nc(N=Nc2ccc(S(=O)(=O)O)cc2S(=O)(=O)O)c(COP(=O)(O)O)c(C=O)c1O [PPADS, pyridoxal-phosphate-6-azophenyl-2′, 4′-disulphonic acid] | ++ (++: inhibitory concentration = 10~300 nM) | ++ (++: inhibitory concentration = 10~300 nM) | + (+: inhibitory concentration >300 nM) | ++ (++: inhibitory concentration = 10~300 nM) |  |  |  |  |  |  | 
2 | Cc1ccc(C(=O)Nc2ccc(S(=O)(=O)O)c3cc(S(=O)(=O)O)cc(S(=O)(=O)O)c23)cc1NC(=O)c1cccc(NC(=O)Nc2cccc(C(=O)Nc3cc(C(=O)Nc4ccc(S(=O)(=O)O)c5cc(S(=O)(=O)O)cc(S(=O)(=O)O)c45)ccc3C)c2)c1 [E02, Suramin Sodium] | ++ (++: inhibitory concentration = 10~300 nM) |  | − |  | 2 | ++ (key: −: no activity; +: inhibitory concentration >300 nM; ++: inhibitory concentration = 10~300 nM; +++: inhibitory concentration <10 nM) | completely inhibit | 4.7 | 5.89 | 15.49 | + (key: −: no activity; +: inhibitory concentration >300 nM; ++: inhibitory concentration = 10~300 nM; +++: inhibitory concentration <10 nM)
